Assay results taken from ChEMBL document CHEMBL1201862, “PubChem BioAssay data set” (2004).
Calls of active or inactive are those of the source.

Columns and labels:
[1] = system: SN12K1; test: cells; format: functional; conditions: Homo sapiens
[2] = viability loss in CEM21 cells – cell-based, CellTiter-Glo luminescence, cherry-picked, cytotoxicity control for viral fusion inhibitor project, dose response (AID 652042); format: functional;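 also: potency for signal decrease meaning cytotoxicity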
[3] = biological target: Cyclin-dependent kinase 5/CDK5 activator 1 (Homo sapiens, UniProt Q00535); test: blockade of human CDK5 activity – biochemical, cherry-picked samples, set 2, dose response (AID 504545)
Sequence of Cyclin-dependent kinase 5/CDK5 activator 1 (Q00535 whole entry, the tested form may be a part): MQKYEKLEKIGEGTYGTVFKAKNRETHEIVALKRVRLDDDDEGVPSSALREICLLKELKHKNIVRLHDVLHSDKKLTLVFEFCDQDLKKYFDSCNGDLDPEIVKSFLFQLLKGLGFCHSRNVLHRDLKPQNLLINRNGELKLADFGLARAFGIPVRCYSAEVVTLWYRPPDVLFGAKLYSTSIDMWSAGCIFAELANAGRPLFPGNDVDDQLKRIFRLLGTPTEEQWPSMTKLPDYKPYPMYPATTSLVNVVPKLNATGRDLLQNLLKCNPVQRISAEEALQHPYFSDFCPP
Sequence of Cyclin-dependent kinase 5/CDK5 activator 1 (Q15078 whole entry, further chain, the tested form may be a part): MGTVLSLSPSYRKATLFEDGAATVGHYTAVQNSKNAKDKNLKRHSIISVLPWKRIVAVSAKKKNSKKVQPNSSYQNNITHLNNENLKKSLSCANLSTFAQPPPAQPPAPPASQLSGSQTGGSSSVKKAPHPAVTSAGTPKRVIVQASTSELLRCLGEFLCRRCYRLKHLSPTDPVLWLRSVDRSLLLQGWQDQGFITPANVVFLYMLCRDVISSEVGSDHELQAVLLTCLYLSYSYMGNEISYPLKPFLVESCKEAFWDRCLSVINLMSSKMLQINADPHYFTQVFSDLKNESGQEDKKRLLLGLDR

[4] = HIV-1 AD8 envelope cell-cell fusion blockers – cherry-pick, dose response (AID 652062); format: functional, cell-based;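 also: luciferase signal from cell-cell fusion driven by HIV-1 clade B AD8 Env; potency is for inhibitors of fusion seen as a drop in luminescence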
[5] = blockers of HIV-1 ZM109 envelope-driven cell-cell fusion – HeLa effector, CEM target cells, luciferase, cherry-pick, dose response (AID 652058); format: functional, cell-based;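 also: luciferase signal from HIV-1 Env mediated cell-cell fusion of effector and target cells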
[6] = biological target: SWI/SNF-related matrix-associated actin-dependent regulator of chromatin subfamily A member 2 (Homo sapiens, UniProt P51531); test: Luminescence-based cell-based high throughput dose response assay to identify activators of the function of SWI/SNF related, matrix associated, actin dependent regulator of chromatin, subfamily a, member 2 (SMARCA2, BRM).; format: functional
Sequence of SWI/SNF-related matrix-associated actin-dependent regulator of chromatin subfamily A member 2 (P51531 whole entry): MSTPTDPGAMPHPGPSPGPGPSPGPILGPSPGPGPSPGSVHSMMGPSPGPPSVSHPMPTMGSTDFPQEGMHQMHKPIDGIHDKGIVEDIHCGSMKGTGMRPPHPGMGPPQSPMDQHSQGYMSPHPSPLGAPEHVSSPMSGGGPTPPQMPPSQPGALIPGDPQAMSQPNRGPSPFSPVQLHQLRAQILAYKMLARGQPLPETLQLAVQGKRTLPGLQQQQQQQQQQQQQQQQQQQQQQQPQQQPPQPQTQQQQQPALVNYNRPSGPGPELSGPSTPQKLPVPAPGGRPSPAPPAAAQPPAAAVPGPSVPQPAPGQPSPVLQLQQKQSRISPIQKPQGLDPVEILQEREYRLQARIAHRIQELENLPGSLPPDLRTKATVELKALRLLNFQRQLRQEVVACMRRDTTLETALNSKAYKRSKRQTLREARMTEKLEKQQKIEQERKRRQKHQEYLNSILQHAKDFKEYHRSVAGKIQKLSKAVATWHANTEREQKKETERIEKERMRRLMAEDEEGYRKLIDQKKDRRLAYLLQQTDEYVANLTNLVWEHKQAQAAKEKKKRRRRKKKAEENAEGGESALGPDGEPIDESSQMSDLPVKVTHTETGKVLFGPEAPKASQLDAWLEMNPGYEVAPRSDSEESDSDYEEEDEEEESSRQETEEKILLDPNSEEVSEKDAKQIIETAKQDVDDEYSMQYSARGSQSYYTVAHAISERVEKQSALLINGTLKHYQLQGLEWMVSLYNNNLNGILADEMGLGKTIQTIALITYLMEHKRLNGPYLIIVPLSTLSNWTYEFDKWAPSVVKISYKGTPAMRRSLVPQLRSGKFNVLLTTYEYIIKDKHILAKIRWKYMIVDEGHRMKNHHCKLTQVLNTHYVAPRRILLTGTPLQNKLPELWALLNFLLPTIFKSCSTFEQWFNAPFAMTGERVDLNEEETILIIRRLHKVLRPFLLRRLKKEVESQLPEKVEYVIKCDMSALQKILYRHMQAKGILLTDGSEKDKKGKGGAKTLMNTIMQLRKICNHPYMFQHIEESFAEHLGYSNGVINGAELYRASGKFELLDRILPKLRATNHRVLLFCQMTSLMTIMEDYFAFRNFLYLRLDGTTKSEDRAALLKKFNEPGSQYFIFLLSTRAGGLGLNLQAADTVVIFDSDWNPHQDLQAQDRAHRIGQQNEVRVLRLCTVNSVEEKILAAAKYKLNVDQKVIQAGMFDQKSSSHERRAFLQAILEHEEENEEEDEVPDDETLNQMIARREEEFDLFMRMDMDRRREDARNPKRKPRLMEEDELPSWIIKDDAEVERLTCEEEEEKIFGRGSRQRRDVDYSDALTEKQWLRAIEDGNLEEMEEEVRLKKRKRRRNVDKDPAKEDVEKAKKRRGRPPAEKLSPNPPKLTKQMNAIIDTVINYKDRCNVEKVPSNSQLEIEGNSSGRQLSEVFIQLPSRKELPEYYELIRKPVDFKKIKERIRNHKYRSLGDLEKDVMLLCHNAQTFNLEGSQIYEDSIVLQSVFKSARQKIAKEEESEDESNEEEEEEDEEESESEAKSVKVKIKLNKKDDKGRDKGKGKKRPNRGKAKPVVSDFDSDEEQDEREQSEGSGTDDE

[7] = Counterscreen for activators of the function of SWI/SNF related, matrix associated, actin dependent regulator of chromatin, subfamily a, member 2 (SMARCA2, BRM): Luminescence-based cell-based high throughput dose response assay to identify non-selective compounds using the VP16 reporter assay.; format: functional
[8] = off-target signal loss in HeLa-CEM21 co-culture – HeLa F-luc CTL cells, cherry-picked, counter-screen for HIV-1 Env fusion inhibitor project, dose response (AID 652040); format: functional, cell-based;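 also: potency for signal decrease marking cytotoxic or nonspecific inhibition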
[9] = blockers of HIV-1 envelope-mediated cell-cell fusion – cherry-pick, dose response (AID 652057); format: functional, cell-based
[10] = biological target: Female germline-specific tumor suppressor gld-1 (Caenorhabditis elegans, UniProt Q17339); test: blockers of GLD-1/TGE RNA complex formation – biochemical, fluorescence polarization, C. elegans, dose response (AID 2802);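 also: fluorescence polarization of labeled TGE RNA bound by purified gld-1 protein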
Sequence of Female germline-specific tumor suppressor gld-1 (Q17339 whole entry): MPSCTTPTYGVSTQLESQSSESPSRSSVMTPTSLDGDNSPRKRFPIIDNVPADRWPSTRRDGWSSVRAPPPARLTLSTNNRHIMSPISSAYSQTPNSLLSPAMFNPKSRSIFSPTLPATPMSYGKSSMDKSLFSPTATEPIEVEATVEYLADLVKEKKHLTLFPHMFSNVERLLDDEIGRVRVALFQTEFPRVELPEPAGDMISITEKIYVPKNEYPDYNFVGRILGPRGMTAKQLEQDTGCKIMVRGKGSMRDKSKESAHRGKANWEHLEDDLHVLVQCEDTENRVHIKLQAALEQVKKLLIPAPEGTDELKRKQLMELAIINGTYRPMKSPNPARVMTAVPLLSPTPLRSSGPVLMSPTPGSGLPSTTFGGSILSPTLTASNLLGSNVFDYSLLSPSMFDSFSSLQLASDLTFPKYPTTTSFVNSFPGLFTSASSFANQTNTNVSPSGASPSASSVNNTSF

[11] = biological target: Protein Rev (Human immunodeficiency virus type 1 group M subtype B (isolate HXB2)(HIV-1), UniProt P04618); test: blockers of HIV Rev/RRE RNA complex – biochemical, fluorescence polarization, HIV-1, dose response (AID 434976); set-up: species or system Human immunodeficiency virus 1
Sequence of Protein Rev (P04618 whole entry): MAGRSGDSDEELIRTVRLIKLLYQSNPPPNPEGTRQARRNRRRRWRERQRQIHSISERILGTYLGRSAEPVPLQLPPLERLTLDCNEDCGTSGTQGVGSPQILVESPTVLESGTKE

[12] = biological target: X-box-binding protein 1 (Homo sapiens, UniProt P17861); format: functional, Cricetulus griseus;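 also: confirmatory dose-response counter-screen serving a CHOP assay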
Sequence of X-box-binding protein 1 (P17861 whole entry): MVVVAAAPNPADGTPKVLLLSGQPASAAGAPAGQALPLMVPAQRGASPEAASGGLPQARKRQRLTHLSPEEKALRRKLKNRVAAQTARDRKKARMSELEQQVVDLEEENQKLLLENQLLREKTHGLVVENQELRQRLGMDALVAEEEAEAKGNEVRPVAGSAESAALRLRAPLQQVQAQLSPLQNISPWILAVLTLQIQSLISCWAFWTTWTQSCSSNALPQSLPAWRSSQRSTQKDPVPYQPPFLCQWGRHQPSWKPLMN

[13] = biological target: Long-chain-fatty-acid--AMP ligase FadD28 (Mycobacterium tuberculosis, UniProt P9WQ59); test: Fluorescence polarization aasay to screen for inhibitors that compete for the binding of FadD28 to a bisubstrate Measured in Biochemical System Using Plate Reader - 2147-01_Inhibitor_Dose_CherryPick_Activity.; format: functional, Mycobacterium tuberculosis H37Rv
Sequence of Long-chain-fatty-acid--AMP ligase FadD28 (P9WQ59 whole entry): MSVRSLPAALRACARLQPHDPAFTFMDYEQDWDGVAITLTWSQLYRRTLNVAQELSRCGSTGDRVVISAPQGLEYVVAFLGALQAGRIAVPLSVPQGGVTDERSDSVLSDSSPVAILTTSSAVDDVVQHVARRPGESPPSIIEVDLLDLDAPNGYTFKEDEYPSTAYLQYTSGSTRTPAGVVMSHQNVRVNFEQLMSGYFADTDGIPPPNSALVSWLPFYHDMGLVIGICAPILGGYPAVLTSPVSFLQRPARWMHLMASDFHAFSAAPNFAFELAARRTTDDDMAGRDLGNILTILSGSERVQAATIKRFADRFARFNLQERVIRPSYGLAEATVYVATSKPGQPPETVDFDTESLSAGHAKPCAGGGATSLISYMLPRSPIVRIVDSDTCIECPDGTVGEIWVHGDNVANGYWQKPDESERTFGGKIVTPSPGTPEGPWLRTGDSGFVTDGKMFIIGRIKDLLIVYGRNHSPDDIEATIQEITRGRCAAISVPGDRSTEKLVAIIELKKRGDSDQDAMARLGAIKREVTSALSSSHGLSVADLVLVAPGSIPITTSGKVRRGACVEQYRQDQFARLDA

[14] = biological target: T1, SUMO-activating enzyme (Homo sapiens, UniProt Q9UBT2); test: blockers of SAE1/SAE2–UBC9 SUMO transfer – biochemical, HTRF, uHTS, primary screen (AID 2006); format: protein-complex assay
T1 sequence (Q9UBE0 whole entry): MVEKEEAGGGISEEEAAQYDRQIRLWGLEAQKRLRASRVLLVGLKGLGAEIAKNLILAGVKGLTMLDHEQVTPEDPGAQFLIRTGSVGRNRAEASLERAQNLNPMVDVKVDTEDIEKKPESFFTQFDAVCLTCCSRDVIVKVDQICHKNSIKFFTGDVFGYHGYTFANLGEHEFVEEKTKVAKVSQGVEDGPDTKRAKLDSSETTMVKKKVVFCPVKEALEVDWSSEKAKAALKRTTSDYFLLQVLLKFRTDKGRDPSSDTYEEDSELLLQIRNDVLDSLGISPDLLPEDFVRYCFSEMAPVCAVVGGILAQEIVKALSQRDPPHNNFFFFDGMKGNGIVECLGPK
T1 sequence (Q9UBT2 whole entry): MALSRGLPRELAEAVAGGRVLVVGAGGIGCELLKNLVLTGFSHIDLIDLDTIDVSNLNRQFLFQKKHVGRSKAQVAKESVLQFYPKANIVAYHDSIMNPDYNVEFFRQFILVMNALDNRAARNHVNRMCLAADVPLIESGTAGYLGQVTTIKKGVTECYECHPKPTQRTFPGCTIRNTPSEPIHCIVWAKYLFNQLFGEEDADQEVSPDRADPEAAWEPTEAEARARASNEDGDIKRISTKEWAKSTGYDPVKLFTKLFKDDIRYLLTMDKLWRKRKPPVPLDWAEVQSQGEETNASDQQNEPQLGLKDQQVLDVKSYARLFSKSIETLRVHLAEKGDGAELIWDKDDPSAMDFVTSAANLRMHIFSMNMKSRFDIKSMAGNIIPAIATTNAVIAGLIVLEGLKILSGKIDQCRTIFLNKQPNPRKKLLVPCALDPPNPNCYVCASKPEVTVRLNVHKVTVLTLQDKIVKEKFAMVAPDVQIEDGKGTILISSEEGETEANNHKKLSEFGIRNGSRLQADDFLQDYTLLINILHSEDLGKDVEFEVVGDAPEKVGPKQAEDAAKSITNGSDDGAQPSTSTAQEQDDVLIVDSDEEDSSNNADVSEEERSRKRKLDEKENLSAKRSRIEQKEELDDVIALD

[15] = biological target: T1, SUMO-activating enzyme; test: blockers of UBC9-mediated SUMO conjugation – biochemical, AlphaScreen, SUMOylation inhibitor project, confirmation (AID 2018); format: functional
[16] = biological target: Eukaryotic translation initiation factor 4E (Mus musculus, UniProt P63073); test: blockers of eIF4G binding by eIF4E – biochemical, TR-FRET, dose response (AID 855); format: functional;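 also: potency for disrupting eIF4E binding to eIF4GI seen as loss of FRET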
Sequence of Eukaryotic translation initiation factor 4E (P63073 whole entry): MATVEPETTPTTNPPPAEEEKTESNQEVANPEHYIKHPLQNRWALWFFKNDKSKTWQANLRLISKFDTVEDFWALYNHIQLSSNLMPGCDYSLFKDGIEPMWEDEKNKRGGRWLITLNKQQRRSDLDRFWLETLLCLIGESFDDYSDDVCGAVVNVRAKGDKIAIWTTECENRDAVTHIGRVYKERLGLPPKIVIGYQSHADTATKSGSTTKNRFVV

**Q.** For `N#Cc1cn(C2OC(CO)C(O)C2O)c2ncnc(N)c12` (stereo unspecified), which GI50 [1] is on record?
**A.** Its GI50 is 0.0425 µM (active).

**Q.** And the AC50 [2]?
**A.** Its AC50 is < 0.26 µM (active).

**Q.** And the AC50 [3]?
**A.** The AC50 was 5.59 µM (active).

**Q.** What about the AC50 [4] of the same compound?
**A.** Its AC50 is 0.621 µM (active).

**Q.** And the AC50 [5]?
**A.** The AC50 was < 0.26 µM (active).

**Q.** What about the EC50 [6] of the same compound?
**A.** The EC50 was > 91.2 µM (inactive).

**Q.** And the EC50 [7]?
**A.** Its EC50 is > 91.2 µM (inactive).

**Q.** And the AC50 [8]?
**A.** The AC50 was 1.39 µM (active).

**Q.** What about the AC50 [9] of the same compound?
**A.** The AC50 was < 0.26 µM (active).

**Q.** Which results are given for `Nc1c(-c2cccc([N+](=O)[O-])c2)nc2ccccn12`?
**A.** IC50 [10]: 7.64 µM (active); IC50 [11]: > 75.5 µM (not active)

**Q.** Which “Absolute IC50 (XBP1)” value [12] does the source give for `CC(C)(C)c1ccc(NC(=O)Nc2ccc(F)cc2)cc1` here?
**A.** The value was 10 µM.

**Q.** Which AC50 [13] does the source give for `Cc1ccc(NC(=O)CN2C(=O)S/C(=C/c3ccc(O)c([N+](=O)[O-])c3)C2=O)cc1C` here?
**A.** Its AC50 is 7.6 µM (active).

**Q.** What about the IC50 [14] of the same compound?
**A.** Its IC50 is 20.9 µM (active).

**Q.** And the IC50 [15]?
**A.** Its IC50 is 5.08 µM (active).

**Q.** And the IC50 [16]?
**A.** The IC50 was 50 µM (inactive).
